In patent US8445511B2, “Quinoline or quinoxaline derivatives for treating neurodegenerative diseases” (Centre National de la Recherche Scientifique (SNRS), priority 2008, dated 2013):

What was measured:
dopaminergic neurons = assay: Measurement of tritiated dopamine reuptake in primary mesencephalic cultures; format: cell-based, rat; settings: 12 days of culture; 1 nM, 10 nM, 100 nM and 1 μM; FIG. 4
Protocol: The primary cultures are treated and cultivated as previously indicated for 12 days in a 24-well plate. The medium is then replaced by a medium lacking serum and enriched with glucose (PBS+5 mM glucose). One well is treated with GBR (5 μM) and will be used to determine nonspecific reuptake. The cells are incubated in this medium for 10 minutes. 50 μl of tritiated dopamine in solution (20 μl of 1 mCi/ml ^3H-dopamine in 1 ml PBS) is added in each well and the cells are incubated for 20 minutes at 37° C.
The wells are then washed twice with PBS, and then 500 μl distilled water is added. The cells are scraped and the liquid transferred to scintillation vials containing 7 ml scintillation liquid (Biodegradable Counting Scintillant-liquid scintillation spectroscopy, BCS), well by well. The samples are run through the scintillation counter.
Neurons at 12 days of culture are then cultivated for a short time in the presence of tritiated dopamine (H^3-DA). After washing, the cells are lysed and intraneuronal H^3-DA is recovered and assayed by scintillation counter.

[1] = tested on: PC12 pheochromocytoma cells; assay: Differentiating activity on PC12 pheochromocytoma cells; format: cell-based; settings: 100 nM and 1 μM
Protocol: The cells are maintained in […] flasks at 37° C. in a humid atmosphere enriched by 5% CO2 in RPMI medium supplemented with 10% horse serum, 5% fetal calf serum, 1% glutamine and 1% penicillin/streptomycin mixture. The horse and fetal calf serums are decomplemented for 40 minutes at 56° C. before use. The cultures are divided when they reach 80% confluence, approximately every 3 days. Each operation is performed by scraping the cells and then centrifugation at 1,000 rpm for 5 minutes, mechanical dissociation of the cell aggregates and inoculation at the dilution desired. Before treatment, the cells are cultivated 5 days in a deprivation medium composed of RPMI supplemented with 1% horse serum, 0.5% fetal calf serum, 1% glutamine, 1% penicillin/streptomycin and 50 ng/ml NGF (nerve growth factor). After 5 days of pretreatment with NGF, the cells are washed twice with PBS (phosphate buffered saline), taken up in deprivation medium, scraped and pelleted at 1,000 rpm for 5 minutes. The cells are then dissociated, counted on a hemocytometer and inoculated at a concentration of 15.6×10^3 cells/cm^2. After 4 hours, the cells are treated by various compounds of the invention at the concentrations desired (stock solutions in absolute ethanol and then a series of dilutions in water). […] At least 20 differentiated cells per well are photographed at random and the length of their neurites are measured using the NeuronJ macro of the ImageJ software. The number of neurites is also counted. Mean total neurite length and number of neurites are then calculated per cell. […] In order to quantify the differentiation of PC12 cells we calculated the ratio between the number of cells emitting dendritic extensions and the total number of cells 48 hours after treatment with our substances at 100 nM and at 1 μM. Morphological changes at the microscopic level were quantified for the cells emitting extensions at approximately 100 cells per condition. Thus number of neurites and mean neurite length per cell were measured using the NeuronJ measurement software by ImageJ.

GABAergic neurons = assay: Measurement of tritiated GABA reuptake in primary mesencephalic cultures; format: cell-based, rat; settings: 12 days of culture; 10 nM and 100 nM; FIG. 6
Protocol: The primary cultures are treated and cultivated as previously indicated with 0.5 embryo per well in a 24-well plate for 12 days. The medium is then replaced by a medium lacking serum and enriched with glucose (PBS+5 mM glucose). The cells are incubated in this medium for 10 minutes. 50 μl of tritiated GABA in solution (20 μl of 1 mCi/ml ^3H-GABA in 1 ml PBS) is added in each well and the cells are incubated for 5 minutes at 37° C. Since GABA is taken back up very quickly, it is important to be fast when adding reagents and not to handle too many wells at the same time.
All wells except one are then washed twice with PBS, and then 500 μl distilled water is added. The cells are scraped and the liquid transferred to scintillation vials containing 7 ml scintillation liquid (Biodegradable Counting Scintillant-liquid scintillation spectroscopy, BCS), well by well. The plate containing the remaining well is placed on ice for 30 minutes, then 50 μl of the same GABA solution is added. After 5 minutes, the well is washed twice with PBS and then the cells are lysed with 500 μl distilled water, scraped and the liquid is transferred to a vial containing 5 ml scintillation liquid. This well will be used to measure non-specificity. The samples are run through the scintillation counter.

MAP2+ neurons = assay: Count of MAP2+ neurons in primary mesencephalic cultures (phenotypic specificity); format: cell-based, rat; settings: DIV12; 10 nM and 100 nM; FIG. 5
Excerpt: At 8 days of culture, the cells are fixed by a 4% formaldehyde solution and then washed three times with PBS. The cells then undergo several immunohistochemistry procedures: • anti-tyrosine hydroxylase (TH) visualized by a secondary antibody coupled to a fluorochrome that emits in the red spectrum (Cy3). • anti-MAP2 (MAP=microtubule-associated protein) (neuron marker) visualized by a secondary antibody coupled to a fluorochrome that emits in the green spectrum (alexa488). • DAPI (4′,6-diamidino-2-phenylindole), a nuclear marker that emits in the blue spectrum.
Neuroprotection is evaluated by counting TH positive neurons directly under the microscope or MAP2 positive on images, at 15 images per well, expressed as a percentage of the untreated control. The experiments include three wells per condition. Three independent experiments are carried out under these conditions. Total neurite length per cell calculated by the Neurite Outgrowth software by Explora Nova on 20 neurons photographed independently per well gives an indication of the state of maturation of the dopaminergic neurons. […]
First, the neurons are cultured and maintained at DIV12. […] The neurons are then counted via image with X20 enlargement at 15 images per well.

With `C#CC(O)CCCCCCCCCCCCC#Cc1ccc2ccccc2n1` (stereo not drawn) [Compound N3, 17-(quinolin-2-yl)heptadec-1,16-diyn-3-ol] the “reuptake of tritiated dopamine by dopaminergic neurons versus untreated control” value (dopaminergic neurons) was “increased”, the “cells producing extensions (percentage of PC12 cells differentiated) by comparison with untreated cells” value ([1]; 48 hours after treatment, FIG. 1A) was “two to three times as many cells produce extensions” and the “mean neurite length per cell compared to the control” value ([1]; PC12 cells, FIG. 1B) was “longer”. For the same molecule, the “number of neurites per cell compared to the control” value ([1]; PC12 cells, FIG. 1B) was “more”, the “activity of total neurons of the culture (reuptake of tritiated GABA) versus untreated control” value (GABAergic neurons) was “increased” and the “survival of total neurons of the culture (MAP2+ neurons) versus untreated control” value (MAP2+ neurons) was “increased”.
